The source of these data is patent US20250205257A1 (priority 2022, published 2025).

What is called CC50 is the concentration at which the toxic effect on the cells reaches its halfway point. A low value points to harm at low concentration. Broadly, the half-life is how long it takes for the measured level to halve. A high value points to slow decline. For orientation: AUC means the area under the concentration-time curve, a measure of exposure.

The test system of data set [1] is recombinant ASFV genotype II Georgia virus, GeorgiaDMGFB. The format is cell-based, African swine fever virus.
For data set [2] the following is noted: pig, in vivo.
In data set [3] the test system is ASFV strain Georgia 2007/1. Particulars: pig, in vivo.
A further data set concerns porcine kidney cells. Particulars: pig.
Another data set is described as follows: in vivo. Particulars: pig.
A further data set has as its system ASFV BOT 1/99. Kind of data set: microbe, parasite or virus in culture. The format is cell-based. As to conditions: African swine fever virus, PBMC, 72 h, read-out: EC50 BOT P1/99.
The next data set has as its system ASFV Georgia 2007/1. Briefly: microbe, parasite or virus in culture. The format is cell-based. Particulars: African swine fever virus, PBMC, 72 h, read-out: EC50 Georgia 2007/1.
A short description of the next data set: in vitro. Particulars: pig, CC50 (50% cytotoxic concentration).
In a further data set the test system is ASFV Magadi w/hog 9. Kind of data set: microbe, parasite or virus in culture. It counts as cell-based. Particulars: African swine fever virus, PBMC, 72 h, read-out: EC50 Magadi w/hog 9.
The subject of the next data set is ASFV KAB6/2. Briefly: microbe, parasite or virus in culture. As to conditions: African swine fever virus, PBMC, 72 h, read-out: EC50 KAB6/2. It counts as cell-based.
Data set [4] concerns ASFV strain Georgia 2007/1. Particulars: pig, in vivo, po, 30 mg/kg.

Consider `CC(C)(C)C(=O)OCOP1(=O)CO[C@@H](Cn2ccc(N)nc2=O)CO1` (stereo partly drawn) [Compound 1, Pivaloyloxymethyl ester of cHPMPC], for which, in [1], the “efficacy compared to cHPMPC” value was “intermediate”.

Turning to `CC(C)OC(=O)OCOP1(=O)CO[C@@H](Cn2ccc(N)nc2=O)CO1` (stereo partly drawn) [Compound 2, Isopropyloxycarbonyloxymethyl ester of cHPMPC], in [1], the “efficacy compared to cHPMPC” value is given as “intermediate”.

On to `CCCCCCCCCCCCCCCCOCCCOP1(=O)CO[C@@H](Cn2ccc(N)nc2=O)CO1` (stereo partly drawn) [Compound 3, Hexadecyloxypropyl ester of cHPMPC], for which, in [1], the “efficacy compared to cHPMPC” value is reported as “greatly increased efficacy” and the selectivity indices result is on record as “thousands”.

In the case of `CCCCCCCCCCCCCCCCCCOCCOP1(=O)CO[C@@H](Cn2ccc(N)nc2=O)CO1` (stereo partly drawn) [Compound 4, Octadecyloxyethyl ester of cHPMPC], in data set [1], the “efficacy compared to cHPMPC” value is “greatly increased efficacy” and the selectivity indices entry is “thousands”.

As for `CC(C)OC(=O)[C@H](C)NP1(=O)CO[C@@H](Cn2ccc(N)nc2=O)CO1` (stereo partly drawn) [Compound 5, Isopropyl L-alaninyl cHPMPC], in data set [1], the “efficacy compared to cHPMPC” value is recorded as “intermediate”.

Consider `Nc1ccn(C[C@H]2COP(=O)(O)CO2)c(=O)n1` [cHPMPC, cyclic cidofovir], for which, in data set [2], the other adverse events result is recorded as “No other adverse events were recorded” and the tolerability result is “well tolerated”. Further, in data set [2] (iv, 5 mg/kg), the “injection site observation 1 hour post intravenous dosing” value is listed as “redness at injection site was observed in all pigs” and the “injection site observation 4 hour post intravenous administration” value is on record as “no injection site reactions were observed”. The “pigs survived until the end of the study (day 27 post ASFV challenge) with no ASF disease” value in data set [3] was determined as 2 pigs. Moreover, in [3] (po, 30 mg/kg), the “ASFV genome copies in blood on termination days compared to control pigs” value is on record as “reduced”, the “ASFV genome copies in swab samples on termination days compared to control pigs” value is reported as “reduced”, the median survival is 19.5 days and the “pigs euthanized at moderate severity humane endpoint on day 6 showing reduced ASF disease” value amounted to 2 pigs. Moreover, the “pigs euthanized at moderate severity humane endpoint on day 19 and day 20 with delayed and reduced ASF disease” value in [3] (po, 30 mg/kg) stood at 2 pigs. In the data set on porcine kidney cells, this compound gave a CC50 of 59000 nM. The half-life in “in vivo” (iv, 5 mg/kg) was 3.31 h. Moreover, the AUC in the data set “in vivo” (iv, 5 mg/kg, AUC, analyte VV03-0035) is 71.6 µM·h. The AUC in “in vivo” (iv, 5 mg/kg, exposure (AUC) of VV03-0035, range across pigs) lay within 58 to 95.4 µM·h. For the same compound, the half-life in “in vivo” (po, 25 mg/kg) was 3.51 h. For the same compound, the AUC in “in vivo” (po, 25 mg/kg, AUC, analyte VV03-0035) was 11.6 µM·h. The AUC in “in vivo” (po, 25 mg/kg, exposure (AUC) of VV03-0035, range across pigs) fell in the range of 2.32 to 23.7 µM·h. Besides, the EC50 in the data set on ASFV BOT 1/99 was determined as 300 ± 200 nM. Further, the EC50 in the data set on ASFV Georgia 2007/1 came to 310 ± 170 nM. The half-maximal cytotoxic concentration (CC50) in “in vitro” was determined as 47000 nM. For the same compound, the EC50 with ASFV Magadi w/hog 9 was determined as 110 ± 50 nM. Further, the EC50 in the data set on ASFV KAB6/2 came to 590 ± 80 nM. In data set [4], the ASF viraemia entry is on record as “significantly reduced”; the “ASF viral genome copies in organs (lungs, spleens, lymph nodes) compared to placebo” value was “significantly reduced”; the “median survival / median day of death” value turned out to be 8 days. Also, the “concentration above which mNeon Green expression was not observed” value in [1] was greater than 0.05 µM.
